{"source": "ChEMBL document CHEMBL4359811", "about": "“Development of Potent and Selective Pyrazolopyrimidine IRAK4 Inhibitors” (J Med Chem, 2019)", "key": {"[1]": {"test": "Cmax in monkey at 1 mg/kg, po", "format": "ADME, organism-based, Macaca mulatta", "design": "dose 1 mg/kg, route oral", "conditions": "rhesus monkey, in vivo"}, "[2]": {"test": "AUC (infinity) in rat at 1 mg/kg, po", "format": "ADME, organism-based", "design": "dose 1 mg/kg, time infinity, route oral", "conditions": "in vivo"}, "[3]": {"test": "Volume of distribution at steady state in mouse at 1 mg/kg, iv", "format": "ADME, organism-based", "conditions": "in vivo, read-out: Vdss"}, "[4]": {"test": "AUC (infinity) in mouse at 30 mg/kg, po", "format": "ADME, organism-based", "design": "dose 30 mg/kg, time infinity, route oral", "conditions": "in vivo"}, "[5]": {"test": "Half-life in mouse at 10 mg/kg, po", "format": "ADME, organism-based", "conditions": "in vivo"}, "[6]": {"test": "Half-life in mouse at 100 mg/kg, po administered as suspension in 10% captisol", "format": "ADME, organism-based", "conditions": "in vivo"}, "[7]": {"test": "Protein binding in rat plasma at 5 uM incubated for 4 hrs by LC-MS/MS analysis", "format": "ADME, cell-free", "conditions": "read-out: PPB (converted)"}, "[8]": {"test": "AUC (infinity) in mouse at 300 mg/kg, po administered as suspension in 10% captisol", "format": "ADME, organism-based", "design": "dose 300 mg/kg, route oral, time infinity", "conditions": "in vivo"}, "[9]": {"test": "Half-life in rat at 1 mg/kg, po", "format": "ADME, organism-based", "conditions": "in vivo"}, "[10]": {"test": "Cmax in mouse at 100 mg/kg, po administered as suspension in MCT", "format": "ADME, organism-based", "design": "dose 100 mg/kg, route oral", "conditions": "in vivo"}, "[11]": {"test": "Plasma clearance in mouse at 1 mg/kg, iv", "format": "ADME, organism-based"}, "Mus musculus [12]": {"tested_on": "Mus musculus", "test": "In vivo inhibition of IRAK4 in CpG ODN 1826 induced C57BL/6 mouse assessed as blockade of TLR9 signalling by measuring TNFalpha levels at 10 mg/kg, po treated 1 hr prior to CpG ODN 1826 stimulation and measured after 1 hr by MSD assay", "format": "functional", "design": "scale not given: the % may be the effect or the level left"}, "Mus musculus [13]": {"tested_on": "Mus musculus", "test": "In vivo inhibition of IRAK4 in CpG ODN 1826 induced C57BL/6 mouse assessed as blockade of TLR9 signalling by measuring IL-6 levels at 100 mg/kg, po treated 1 hr prior to CpG ODN 1826 stimulation and measured after 1 hr by MSD assay", "format": "functional", "design": "scale not given: the % may be the effect or the level left"}, "[14]": {"test": "Oral bioavailability in mouse at 5 mg/kg", "format": "ADME, organism-based", "conditions": "in vivo"}}}
{"smiles": "C[C@]1(CO)Cc2cc(NC(=O)c3cnn4cccnc34)c(N3CCOCC3)cc2O1", "values": [{"measurement": "Cmax", "setting": "[1]", "result": 300, "unit": "nM"}, {"measurement": "AUC(0-inf)", "setting": "[2]", "result": 3, "unit": "µM·h"}, {"measurement": "Vd", "setting": "[3]", "result": 1.1, "unit": "L/kg"}, {"measurement": "AUC(0-inf)", "setting": "[4]", "result": 17, "unit": "µM·h"}, {"measurement": "half-life", "setting": "[5]", "result": 78, "unit": "min"}, {"measurement": "half-life", "setting": "[6]", "result": 198, "unit": "min"}, {"measurement": "fraction unbound at 4 h, 5 µM", "setting": "[7]", "result": 0.21}, {"measurement": "AUC(0-inf)", "setting": "[8]", "result": 340, "unit": "µM·h"}, {"measurement": "half-life", "setting": "[9]", "result": 228, "unit": "min"}, {"measurement": "Cmax", "setting": "[10]", "result": 4.8, "unit": "µM"}, {"measurement": "clearance", "setting": "[11]", "result": 54, "unit": "mL/min/kg"}, {"measurement": "Activity", "setting": "Mus musculus [12]", "result": -39, "unit": "%"}, {"measurement": "Activity", "setting": "Mus musculus [13]", "result": -91, "unit": "%"}, {"measurement": "bioavailability", "setting": "[14]", "result": 59, "unit": "%"}]}
